Source: US20020115661A1, “Method for treating chronic obstructive pulmonary disease” (priority 2000, published 2002)
Like-named read-outs stand apart in the source and are kept apart here.

Columns and labels:
[1] = Oral rising single-dose pharmacokinetic study in healthy subjects; type: in vivo, human
rat ETA receptors = biological target: T1, rat ETA receptors (Rattus norvegicus, UniProt P26684); assay: [125I]ET-1 binding, membranes from rat A10 cells
T1 construct: endogenous in cells
T1 sequence (P26684 21-426): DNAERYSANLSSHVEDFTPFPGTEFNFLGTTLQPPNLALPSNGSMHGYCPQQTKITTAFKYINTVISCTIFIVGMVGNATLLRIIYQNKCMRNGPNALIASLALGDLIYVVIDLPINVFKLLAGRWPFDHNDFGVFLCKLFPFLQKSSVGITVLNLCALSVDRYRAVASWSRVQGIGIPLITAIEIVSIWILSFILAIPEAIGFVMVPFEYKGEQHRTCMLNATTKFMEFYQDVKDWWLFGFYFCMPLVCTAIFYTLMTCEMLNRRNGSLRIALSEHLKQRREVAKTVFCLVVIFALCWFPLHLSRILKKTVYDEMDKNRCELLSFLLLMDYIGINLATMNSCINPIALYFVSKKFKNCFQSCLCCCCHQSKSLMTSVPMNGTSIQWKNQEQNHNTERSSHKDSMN
Source text: (§1) Relative binding activities are given below in TABLE 3.

[2] = Dissociation constant by potentiometric titration in water; type: physicochemical; settings: carboxylic acid group, read-out: apparent pKa
[3] = Food effect (high-fat meal) single-dose study in healthy subjects; type: in vivo, human; settings: for Tmax: human, plasma, oral, 150 mg
[4] = Thermal properties, hygroscopicity and stability; type: physicochemical
[5] = biological target: T2, human ETA receptor signaling (Homo sapiens, UniProt P25101); assay: ET-1 induced Ca2+ transient (Calcium Green-1) in human pulmonary artery smooth muscle cells; type: cell-based; settings: hPASMC, ET-1 100 nM; read-out: IC50, inhibition of ET-1 Ca2+ response
T2 construct: endogenous in cells; host or cells: human pulmonary artery smooth muscle cells (hPASMC)
T2 sequence (P25101 21-427): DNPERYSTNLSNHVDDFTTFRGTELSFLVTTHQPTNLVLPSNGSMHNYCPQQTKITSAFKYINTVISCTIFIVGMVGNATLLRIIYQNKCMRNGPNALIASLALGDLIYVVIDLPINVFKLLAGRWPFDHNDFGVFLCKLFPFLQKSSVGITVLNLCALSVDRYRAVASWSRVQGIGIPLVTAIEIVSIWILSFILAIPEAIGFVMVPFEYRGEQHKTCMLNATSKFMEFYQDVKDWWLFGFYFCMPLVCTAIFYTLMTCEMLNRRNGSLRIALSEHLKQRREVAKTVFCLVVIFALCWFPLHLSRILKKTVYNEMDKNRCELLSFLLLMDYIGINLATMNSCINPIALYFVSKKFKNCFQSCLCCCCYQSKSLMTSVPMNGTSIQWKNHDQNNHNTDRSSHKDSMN

[6] = Octanol-aqueous partition coefficient, shake-flask method with HPLC; type: physicochemical
Description: Partition Coefficient: The octanol-aqueous partition coefficient at various pH values was determined by the shake-flask method using HPLC for measurement of the amount of compound in each phase.

rat ETB receptors = biological target: T3, rat ETB receptors (Rattus norvegicus, UniProt P21451); assay: [125I]ET-3 binding, membranes from rat cerebellum
T3 construct: from tissue
T3 sequence (P21451 27-442): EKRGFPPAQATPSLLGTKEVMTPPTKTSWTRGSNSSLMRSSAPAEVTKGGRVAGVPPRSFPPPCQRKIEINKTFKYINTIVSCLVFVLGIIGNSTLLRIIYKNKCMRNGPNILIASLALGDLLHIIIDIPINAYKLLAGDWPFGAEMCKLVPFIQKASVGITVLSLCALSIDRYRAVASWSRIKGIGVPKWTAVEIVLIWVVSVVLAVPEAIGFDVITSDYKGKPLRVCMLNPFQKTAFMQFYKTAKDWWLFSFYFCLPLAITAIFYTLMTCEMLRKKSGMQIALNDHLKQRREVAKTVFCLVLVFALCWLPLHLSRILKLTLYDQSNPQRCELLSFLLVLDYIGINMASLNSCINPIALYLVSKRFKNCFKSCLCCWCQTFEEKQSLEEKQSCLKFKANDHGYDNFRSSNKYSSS
Source text: as §1

[7] = Distribution, plasma protein binding and excretion; type: in vivo
[8] = system: bET-1 pressor response (ETA receptors); assay: Blockade of bET-1 induced pressor responses in rats; type: in vivo, rat
Source text: Vehicle-treated rats responded to the bET-1 challenge with peak increases in mean arterial pressure (MAP) of 58±2 mm Hg (N=7); baseline MAP was 82±5 mm Hg.

Pharmacokinetics in dogs = type: in vivo; settings: dog
Solubility = type: physicochemical
Description: The compound acts as a base, raising the pH of the water to a measured value of 8.9 for a 100 mg/mL solution.
CI-1034 is insoluble in hexane and isopropanol.

Question: What does the source list for `CCc1cc(C2=C(C(=O)[O-])N(c3ccccc3C(F)(F)F)S(=O)(=O)c3ccccc32)cc2c1OCO2.[K+]` [CI-1034, 4-(7-Ethyl-1,3-benzodioxol-5-yl)-2-[2-(trifluoromethyl)phenyl]-2H-1 ,2-benzothiazine-3-carboxylic acid 1,1-dioxide monopotassium salt]?
Answer: Renal excretion of unchanged CI-1034 ([1]; Study 1034-001): < 3 % of the dose; half-life ([1]; human, plasma, oral, 400-mg dose, read-out: additional elimination half-life (converted)): ~13 h; half-life ([1]; human, plasma, single oral doses, Study 1034-001, read-out: elimination half-life (t½)): 2 to 4 h; Tmax ([1]; human, plasma, single oral doses, Study 1034-001, read-out: time to maximal plasma concentrations (tmax)): 1 to 3 h; Cmax and AUC(0-∞) with increasing dose ([1]; single oral doses): slightly more than proportional increases; IC50 (rat ETA receptors): 3.3 nM; pKa [2]: 3.9; Tmax ([3]; fasted state): 1.26 h; Tmax ([3]; with high-fat meal): 3.5 h; mean AUC(0-∞) lower with high-fat breakfast versus fasted ([3]; single dose): approximately 16%; mean Cmax lower with high-fat breakfast versus fasted ([3]; single dose): approximately 50%; Hygroscopicity [4]: Hygroscopicity: CI-1034 is moderately hygroscopic.; Stability on storage ([4]; 4 weeks at 80° C. or 40° C. and 70% relative humidity): CI-1034 was stable for 4 weeks when stored at 80 °C or 40 °C and 70% relative humidity. CI-1034 does not need special storage requirements, other than the usual protection from light.; thermally stable up to ([4]; begins to melt with decomposition): Thermal Properties: CI-1034 is thermally stable up to approximately 300° C., where it begins to melt with decomposition.; Stability ([4]; exposed to hydrogen peroxide): No significant degradation; Stability ([4]; exposed to simulated sunlight): # peroxide. In contrast, samples exposed to simulated sunlight showed degradation.; Stability ([4]; heated in acid, base, or water, protected from light): stable; IC50 [5]: 0.22 nM; logD ([6]; pH 1, 0.1N Hydrochloric Acid): 3.24; logD ([6]; pH 4, 0.05 M Sodium Acetate Buffer): 2.93; logD ([6]; pH 7.4, 0.05 M Potassium Phosphate Buffer): 0.56; IC50 (rat ETB receptors): 230 nM; tissue distribution of radioequivalents ([7]; highest concentrations in liver and blood): not widely distributed; plasma protein binding ([7]; in vivo): highly bound; peak pressor response to bET-1 challenge (MAP increase) ([8]; 30 mg/kg oral gavage 24 hours before bET-1 1 nmol/kg IV): 35±7 mm Hg; inhibition of the bET-1 pressor response compared to vehicle ([8]; 30 mg/kg oral gavage 24 hours before challenge, p<0.05): 39%; bioavailability (Pharmacokinetics in dogs; in vivo, po, dogs): ~100%; increase of plasma concentrations with dose (Pharmacokinetics in dogs; up to 100 mg/kg): approximately proportional to dose; solubility (Solubility; 0.05 M pH 4 acetate buffer): very slightly soluble; solubility (Solubility; 0.05 M pH 7.4 potassium phosphate buffer): very slightly soluble; solubility (Solubility; 0.1N HCl): insoluble; pH of aqueous solution (Solubility; 100 mg/mL solution in water): 8.9; concentration after 24 hours (Solubility; 0.5 M pH 7.4 potassium phosphate buffer, after 24 hours): approximately 0.8 mg/mL; concentration reached on rapid dissolution (Solubility; 0.5 M pH 7.4 potassium phosphate buffer, initial): approximately 13 mg/mL; solubility (Solubility; acetonitrile): slightly soluble; solubility (Solubility; chloroform): very slightly soluble; solubility (Solubility; dichloromethane): very slightly soluble; solubility (Solubility; dimethylsulfoxide): freely soluble; solubility (Solubility; ethanol): sparingly soluble; solubility (Solubility; hexane): insoluble; solubility (Solubility; isopropanol): insoluble; solubility (Solubility; methanol): freely soluble; solubility (Solubility; tetrahydrofuran): slightly soluble; solubility (Solubility; water): freely soluble
